Laboratory results as given in patent publication US9067871B2, “Aminotetraline derivatives, pharmaceutical compositions containing them, and their use in therapy” (ABBVIE DEUTSCHLAND GMBH & CO KG, priority 2009, dated 2015).
Structures can show the parent of a compound that is named as a salt.

Molecular target: human GlyT1c transporter (Homo sapiens (Human), UniProt P48067)
Test: Radioligand binding assay using recombinant CHO cell membranes expressing human GlyT1
Details: human GlyT1c-expressing CHO cell membranes; read-out: radioligand binding Kiapp
Description: 2. Radioligand binding assays using recombinant CHO cell membranes expressing human GlyT1: […]

Sequence of human GlyT1c transporter (P48067 whole entry): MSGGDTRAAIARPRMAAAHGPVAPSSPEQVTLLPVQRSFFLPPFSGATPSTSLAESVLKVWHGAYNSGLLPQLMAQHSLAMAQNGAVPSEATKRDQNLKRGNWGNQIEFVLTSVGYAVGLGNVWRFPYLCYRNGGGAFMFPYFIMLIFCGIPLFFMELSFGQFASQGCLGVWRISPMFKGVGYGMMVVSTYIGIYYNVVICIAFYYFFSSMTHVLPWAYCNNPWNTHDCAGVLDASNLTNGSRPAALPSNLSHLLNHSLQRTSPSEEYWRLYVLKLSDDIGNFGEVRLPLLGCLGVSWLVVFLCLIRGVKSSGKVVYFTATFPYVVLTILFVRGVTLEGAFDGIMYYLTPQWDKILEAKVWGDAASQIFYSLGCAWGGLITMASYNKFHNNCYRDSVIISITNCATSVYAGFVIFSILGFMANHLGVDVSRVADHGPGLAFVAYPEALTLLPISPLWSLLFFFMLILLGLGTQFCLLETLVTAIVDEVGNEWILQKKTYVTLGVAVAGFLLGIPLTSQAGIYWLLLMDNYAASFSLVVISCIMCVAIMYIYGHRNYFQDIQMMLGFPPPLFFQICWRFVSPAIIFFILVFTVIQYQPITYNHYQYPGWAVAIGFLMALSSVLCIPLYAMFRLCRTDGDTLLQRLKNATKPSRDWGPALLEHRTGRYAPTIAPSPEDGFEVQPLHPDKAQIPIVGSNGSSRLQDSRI

| SMILES | Ki [nM] |
| --- | --- |
| Cn1ccc(S(=O)(=O)NCCOc2ccc3c(c2)C(Cc2cccc(F)c2)C(N2CCC2)CC3)c1 (stereo not shown) [Example 269, 1-Methyl-1H-pyrrole-3-sulfonic acid {2-[7-azetidin-1-yl-8-(3-fluoro-benzyl)-5,6,7,8-tetrahydro-naphthalen-2-yloxy]-ethyl}-amide] | ≤ 10 |
| Cn1cnc(S(=O)(=O)NCCOc2ccc3c(c2)C(Cc2ccccc2)C(N2CCC2)CC3)c1 (stereo not shown) [Example 145, N-(2-{[7-(Azetidin-1-yl)-8-benzyl-5,6,7,8-tetrahydronaphthalen-2-yl]oxy}ethyl)-1-methyl-1H-imidazole-4-sulfonamide] | ≤ 10 |
| NC1CCc2ccc(CNS(=O)(=O)c3cccnc3)cc2C1Cc1ccccc1 (stereo not shown) [Example 181, N-{[7-Amino-8-benzyl-5,6,7,8-tetrahydronaphthalen-2-yl]methyl}pyridine-3-sulfonamide dihydrochloride] | ≤ 100 |
| CNC1CCc2ccc(OCCNS(=O)(=O)c3cnn(C)c3)cc2C1Cc1ccccc1Cl (stereo not shown) [Example 302, 1-Methyl-1H-pyrazole-4-sulfonic acid {2-[8-(2-chloro-benzyl)-7-methylamino-5,6,7,8-tetrahydro-naphthalen-2-yloxy]-ethyl}-amide hydrochloride] | ≤ 100 |
| CN(CCCc1ccc2c(c1)C(Cc1ccccc1Cl)C(N)CC2)S(=O)(=O)CC1CC1 (stereo not shown) [Example 228, N-{3-[7-Amino-8-(2-chloro-benzyl)-5,6,7,8-tetrahydro-naphthalen-2-yl]-propyl}-C-cyclopropyl-N-methyl-methanesulfonamide hydrochloride] | ≤ 100 |
| NC1CCc2ccc(OCCNS(=O)(=O)C3CC3)cc2C1Cc1ccccc1 (stereo not shown) [Example 102, Cyclopropanesulfonic acid [2-(7-amino-8-benzyl-5,6,7,8-tetrahydro-naphthalen-2-yloxy)ethyl]-amide hydrochloride] | ≤ 1000 |
| N#Cc1cccc(CC2c3cc(OCCNS(=O)(=O)CC4CC4)ccc3CCC2N2CCCC2)c1 (stereo not shown) [Example 155, N-(2-{[8-(3-Cyanobenzyl)-7-(pyrrolidin-1-yl)-5,6,7,8-tetrahydronaphthalen-2-yl]oxy}ethyl)-1-cyclopropylmethanesulfonamide hydrochloride] | ≤ 1000 |
| O=S(=O)(NCc1ccc2c(c1)C(Cc1ccccc1)C(N1CCC1)CC2)c1cccs1 (single isomer, unassigned; enantiomer 1) [Example 255, Enantiomer 1 of N-{[7-(azetidin-1-yl)-8-benzyl-5,6,7,8-tetrahydronaphthalen-2-yl]methyl}thiophene-2-sulfonamide] | ≤ 1000 |
| O=S(=O)(CC1CC1)NCCOc1ccc2c(c1)C(Cc1ccc(Cl)c(Cl)c1)C(N1CCCC1)CC2 (stereo not shown) [Example 132, C-Cyclopropyl-N-{2-[8-(3,4-dichloro-benzyl)-7-pyrrolidin-1-yl-5,6,7,8-tetrahydronaphthalen-2-yloxy]-ethyl}-methanesulfonamide hydrochloride] | ≤ 100 |
| CCC(=O)NCCOc1ccc2c(c1)C(Cc1ccccc1)C(N)CC2 (stereo not shown) [Example 103, N-[2-(7-Amino-8-benzyl-5,6,7,8-tetrahydro-naphthalen-2-yloxy)-ethyl]-propionamide hydrochloride] | ≤ 10000 |
| CNC1CCc2ccc(OCCNS(=O)(=O)CC3CC3)cc2C1Cc1cccc(F)c1 (single isomer, unassigned; enantiomer 1) [Example 240, Enantiomer 1 of 1-cyclopropyl-N-(2-{[8-(3-fluorobenzyl)-7-(methylamino)-5,6,7,8-tetrahydronaphthalen-2-yl]oxy}ethyl)methanesulfonamide hydrochloride] | ≤ 10 |
| CNC1CCc2ccc(CNS(=O)(=O)c3ccn(C)n3)cc2C1Cc1ccccc1 (stereo not shown) [Example 191, N-{[8-Benzyl-7-(methylamino)-5,6,7,8-tetrahydronaphthalen-2-yl]methyl}-1-methyl-1H-pyrazole-3-sulfonamide hydrochloride] | ≤ 1000 |
| NC1CCc2ccc(CCCNS(=O)(=O)CC3CC3)cc2C1Cc1ccc(F)c(F)c1 (stereo not shown) [Example 204, N-{3-[7-Amino-8-(3,4-difluoro-benzyl)-5,6,7,8-tetrahydro-naphthalen-2-yl]-propyl}-C-cyclopropyl-methanesulfonamide hydrochloride] | ≤ 100 |
| Cn1ccc(S(=O)(=O)NCCOc2ccc3c(c2)C(Cc2cccc(F)c2)C(N2CCCC2)CC3)c1 (stereo not shown) [Example 149, N-(2-{[8-(3-Fluorobenzyl)-7-(pyrrolidin-1-yl)-5,6,7,8-tetrahydronaphthalen-2-yl]oxy}ethyl)-1-methyl-1H-pyrrole-3-sulfonamide hydrochloride] | ≤ 100 |
| O=S(=O)(CC1CC1)NCc1ccc2c(c1)C(Cc1ccccc1)C(N1CCOCC1)CC2 (stereo not shown) [Example 259, N-{[8-Benzyl-7-(morpholin-4-yl)-5,6,7,8-tetrahydronaphthalen-2-yl]methyl}-1-cyclopropylmethanesulfonamide] | ≤ 1000 |
| CN(CCOc1ccc2c(c1)C(Cc1ccccc1)C(N1CCCC1)CC2)S(=O)(=O)c1cnn(C)c1 (stereo not shown) [Example 111, 1-Methyl-1H-pyrazole-4-sulfonic acid [2-(8-benzyl-7-pyrrolidin-1-yl-5,6,7,8-tetrahydronaphthalen-2-yloxy)-ethyl]-methyl-amide hydrochloride] | ≤ 100 |

| SMILES | Ki [nM] |
| --- | --- |
| CNC1CCc2ccc(OCCNS(=O)(=O)c3ccn(C)c3)cc2C1Cc1cc(F)cc(F)c1 (single isomer, unassigned; enantiomer 1) [Example 241, Enantiomer 1 of N-(2-{[8-(3,5-difluorobenzyl)-7-(methylamino)-5,6,7,8-tetrahydronaphthalen-2-yl]oxy}ethyl)-1-methyl-1H-pyrrole-3-sulfonamide hydrochloride] | ≤ 100 |
| CCCS(=O)(=O)NCCCc1ccc2c(c1)C(Cc1ccc(F)cc1)C(N)CC2 (stereo not shown) [Example 213, N-{3-[7-Amino-8-(4-fluorobenzyl)-5,6,7,8-tetrahydronaphthalen-2-yl]propyl}propane-1-sulfonamide hydrochloride] | ≤ 100 |
| Cn1ccc(S(=O)(=O)NCCOc2ccc3c(c2)C(Cc2cccc(F)c2)C(N2CCCC2)CC3)c1 (stereo not shown) [Example 267, N-(2-{[8-(3-Fluorobenzyl)-7-(pyrrolidin-1-yl)-5,6,7,8-tetrahydronaphthalen-2-yl]oxy}ethyl)-1-methyl-1H-pyrrole-3-sulfonamide] | ≤ 100 |
| CN(CCOc1ccc2c(c1)C(Cc1ccccc1)C(N)CC2)S(=O)(=O)CC1CC1 (stereo not shown) [Example 130, N-[2-(7-Amino-8-benzyl-5,6,7,8-tetrahydro-naphthalen-2-yloxy)-ethyl]-C-cyclopropyl-Nmethyl-methanesulfonamide hydrochloride] | ≤ 10 |
| CNC1CCc2ccc(OCCNS(=O)(=O)CC3CC3)cc2C1Cc1cccc(F)c1 (stereo not shown) [Example 247, 1-Cyclopropyl-N-(2-{[8-(3-fluorobenzyl)-7-(methylamino)-5,6,7,8-tetrahydronaphthalen-2-yl]oxy}ethyl)methanesulfonamide hydrochloride] | ≤ 10 |
| CCCS(=O)(=O)NCC#Cc1ccc2c(c1)C(Cc1ccccc1)C(NC(C)=O)CC2 (stereo not shown) [Example 276, N-[1-Benzyl-7-{3-[(propylsulfonyl)amino]prop-1-yn-1-yl}-1,2,3,4-tetrahydronaphthalen-2-yl]acetamide] | ≤ 10000 |
| Cc1cccc(S(=O)(=O)NCc2ccc3c(c2)C(Cc2ccccc2)C(N)CC3)c1 (stereo not shown) [Example 179, N-{[7-Amino-8-benzyl-5,6,7,8-tetrahydronaphthalen-2-yl]methyl}-3-methylbenzenesulfonamide hydrochloride] | ≤ 1000 |
| CNC1CCc2ccc(OCCNS(=O)(=O)CC3CC3)cc2C1Cc1ccccc1F (stereo not shown) [Example 312, C-Cyclopropyl-N-{2-[8-(2-fluoro-benzyl)-7-methylamino-5,6,7,8-tetrahydro-naphthalen-2-yloxy]-ethyl}-methanesulfonamide hydrochloride] | ≤ 100 |
| Cn1cc(S(=O)(=O)NCc2ccc3c(c2)C(Cc2ccccc2)C(N)CC3)c(C(F)(F)F)n1 (stereo not shown) [Example 182, N-{[7-Amino-8-benzyl-5,6,7,8-tetrahydronaphthalen-2-yl]methyl}-1-methyl-3-(trifluoromethyl)-1H-pyrazole-4-sulfonamide hydrochloride] | ≤ 100 |
| Cn1ccc(S(=O)(=O)NCc2ccc3c(c2)C(Cc2ccccc2)C(N)CC3)c1 (stereo not shown) [Example 180, N-{[7-Amino-8-benzyl-5,6,7,8-tetrahydronaphthalen-2-yl]methyl}-1-methyl-1H-pyrrole-3-sulfonamide hydrochloride] | ≤ 10 |
| Cn1cnc(S(=O)(=O)NCc2ccc3c(c2)C(Cc2ccccc2)C(N)CC3)c1 (stereo not shown) [Example 173, N-[(7-Amino-8-benzyl-5,6,7,8-tetrahydronaphthalen-2-yl)methyl]-1-methyl-1H-imidazole-4-sulfonamide hydrochloride] | ≤ 10 |
| C[Si](C)(C)CCS(=O)(=O)NCCOc1ccc2c(c1)C(Cc1ccc(Cl)c(Cl)c1)C(N)CC2 (stereo not shown) [Example 86, 2-Trimethylsilanyl-ethanesulfonic acid {2-[7-amino-8-(3,4-dichloro-benzyl)-5,6,7,8-tetrahydro-naphthalen-2-yloxy]-ethyl}-amide hydrochloride] | ≤ 10000 |
| CNC1CCc2ccc(OCCNS(=O)(=O)CC3CC3)cc2C1Cc1cc(F)cc(F)c1 (stereo not shown) [Example 243, 1-Cyclopropyl-N-(2-{[8-(3,5-difluorobenzyl)-7-(methylamino)-5,6,7,8-tetrahydronaphthalen-2-yl]oxy}ethylmethanesulfonamide hydrochloride] | ≤ 10 |
| O=S(=O)(CC1CC1)NCCOc1ccc2c(c1)C(Cc1ccccc1)C(N1CCC(F)C1)CC2 (stereo not shown) [Example 136, N-[2-({8-Benzyl-7-[3-fluoropyrrolidin-1-yl]-5,6,7,8-tetrahydronaphthalen-2-yl}oxy)ethyl]-1-cyclopropylmethanesulfonamide hydrochloride] | ≤ 100 |
| CCCS(=O)(=O)N1CC(c2ccc3c(c2)C(Cc2ccccc2)C(N)CC3)C1 (stereo not shown) [Example 284, 1-Benzyl-7-[1-(propane-1-sulfonyl)-azetidin-3-yl]-1,2,3,4-tetrahydro-naphthalen-2-ylamine hydrochloride] | ≤ 1000 |
